In the case of `O=C(O)c1ccccc1O`, the solubility (mole fraction) (in acetic acid, 298.15 K) is reported as 0.0531, the solubility (mole fraction) (in acetic acid, 303.15 K) is reported as 0.0617 and the solubility (mole fraction) (in acetic acid, 308.15 K) is reported as 0.0709. It also gave a solubility (mole fraction) (in acetic acid, 313.15 K) of 0.0785, a solubility (mole fraction) (in acetic acid, 318.15 K) of 0.0903 and a solubility (mole fraction) (in acetone, 298.15 K) of 0.175. It also gave a solubility (mole fraction) (in acetone, 303.15 K) of 0.196, a solubility (mole fraction) (in acetone, 308.15 K) of 0.203 and a solubility (mole fraction) (in acetone, 313.15 K) of 0.218. It also gave a solubility (mole fraction) (in acetone, 318.15 K) of 0.231, a solubility (mole fraction) (in ethyl acetate, 298.15 K) of 0.13 and a solubility (mole fraction) (in ethyl acetate, 303.15 K) of 0.14. For the same compound, the solubility (mole fraction) (in ethyl acetate, 308.15 K) was 0.154, the solubility (mole fraction) (in ethyl acetate, 313.15 K) was 0.165 and the solubility (mole fraction) (in ethyl acetate, 318.15 K) was 0.179. It also gave a solubility (mole fraction) (in methanol, 298.15 K) of 0.123, a solubility (mole fraction) (in methanol, 303.15 K) of 0.137 and a solubility (mole fraction) (in methanol, 308.15 K) of 0.15. It also gave a solubility (mole fraction) (in methanol, 313.15 K) of 0.163 and a solubility (mole fraction) (in methanol, 318.15 K) of 0.172.
For `OC/C=C/c1ccccc1`, the solubility (mole fraction) (in acetone, 253.15 K) was 0.28, the solubility (mole fraction) (in acetone, 258.15 K) was 0.322 and the solubility (mole fraction) (in acetone, 263.15 K) was 0.363. The solubility (mole fraction) (in acetone, 268.15 K) was 0.414, the solubility (mole fraction) (in acetone, 273.15 K) was 0.47 and the solubility (mole fraction) (in acetone, 278.15 K) was 0.526. For the same compound, the solubility (mole fraction) (in acetone, 283.15 K) was 0.579, the solubility (mole fraction) (in acetone, 288.15 K) was 0.625 and the solubility (mole fraction) (in acetone, 293.15 K) was 0.674. For the same compound, the solubility (mole fraction) (in ethanol, 253.15 K) was 0.22, the solubility (mole fraction) (in ethanol, 258.15 K) was 0.256 and the solubility (mole fraction) (in ethanol, 263.15 K) was 0.298. The solubility (mole fraction) (in ethanol, 268.15 K) was 0.342, the solubility (mole fraction) (in ethanol, 273.15 K) was 0.404 and the solubility (mole fraction) (in ethanol, 278.15 K) was 0.456. The solubility (mole fraction) (in ethanol, 283.15 K) was 0.52, the solubility (mole fraction) (in ethanol, 288.15 K) was 0.59 and the solubility (mole fraction) (in ethanol, 293.15 K) was 0.652. The solubility (mole fraction) (in ethyl acetate, 253.15 K) was 0.208, the solubility (mole fraction) (in ethyl acetate, 258.15 K) was 0.243 and the solubility (mole fraction) (in ethyl acetate, 263.15 K) was 0.29. It also gave a solubility (mole fraction) (in ethyl acetate, 268.15 K) of 0.351, a solubility (mole fraction) (in ethyl acetate, 273.15 K) of 0.416 and a solubility (mole fraction) (in ethyl acetate, 278.15 K) of 0.486. The solubility (mole fraction) (in ethyl acetate, 283.15 K) was 0.547, the solubility (mole fraction) (in ethyl acetate, 288.15 K) was 0.61 and the solubility (mole fraction) (in ethyl acetate, 293.15 K) was 0.659. It also gave a solubility (mole fraction) (in isobutanol, 253.15 K) of 0.072, a solubility (mole fraction) (in isobutanol, 258.15 K) of 0.105 and a solubility (mole fraction) (in isobutanol, 263.15 K) of 0.165. It also gave a solubility (mole fraction) (in isobutanol, 268.15 K) of 0.217, a solubility (mole fraction) (in isobutanol, 273.15 K) of 0.287 and a solubility (mole fraction) (in isobutanol, 278.15 K) of 0.366. For the same compound, the solubility (mole fraction) (in isobutanol, 283.15 K) was 0.431, the solubility (mole fraction) (in isobutanol, 288.15 K) was 0.498 and the solubility (mole fraction) (in isobutanol, 293.15 K) was 0.576. It also gave a solubility (mole fraction) (in isopropanol, 253.15 K) of 0.195, a solubility (mole fraction) (in isopropanol, 258.15 K) of 0.242 and a solubility (mole fraction) (in isopropanol, 263.15 K) of 0.288. The solubility (mole fraction) (in isopropanol, 268.15 K) was 0.33, the solubility (mole fraction) (in isopropanol, 273.15 K) was 0.394 and the solubility (mole fraction) (in isopropanol, 278.15 K) was 0.446. For the same compound, the solubility (mole fraction) (in isopropanol, 283.15 K) was 0.512, the solubility (mole fraction) (in isopropanol, 288.15 K) was 0.582 and the solubility (mole fraction) (in isopropanol, 293.15 K) was 0.649. The solubility (mole fraction) (in methanol, 253.15 K) was 0.222, the solubility (mole fraction) (in methanol, 258.15 K) was 0.24 and the solubility (mole fraction) (in methanol, 263.15 K) was 0.269. It also gave a solubility (mole fraction) (in methanol, 268.15 K) of 0.307, a solubility (mole fraction) (in methanol, 273.15 K) of 0.351 and a solubility (mole fraction) (in methanol, 278.15 K) of 0.401. For the same compound, the solubility (mole fraction) (in methanol, 283.15 K) was 0.466, the solubility (mole fraction) (in methanol, 288.15 K) was 0.536 and the solubility (mole fraction) (in methanol, 293.15 K) was 0.61. It also gave a solubility (mole fraction) (in methyl acetate, 253.15 K) of 0.172, a solubility (mole fraction) (in methyl acetate, 258.15 K) of 0.225 and a solubility (mole fraction) (in methyl acetate, 263.15 K) of 0.27. For the same compound, the solubility (mole fraction) (in methyl acetate, 268.15 K) was 0.326, the solubility (mole fraction) (in methyl acetate, 273.15 K) was 0.392 and the solubility (mole fraction) (in methyl acetate, 278.15 K) was 0.452. The solubility (mole fraction) (in methyl acetate, 283.15 K) was 0.523, the solubility (mole fraction) (in methyl acetate, 288.15 K) was 0.591 and the solubility (mole fraction) (in methyl acetate, 293.15 K) was 0.646. For the same compound, the solubility (mole fraction) (in n-butanol, 253.15 K) was 0.125, the solubility (mole fraction) (in n-butanol, 258.15 K) was 0.162 and the solubility (mole fraction) (in n-butanol, 263.15 K) was 0.214. It also gave a solubility (mole fraction) (in n-butanol, 268.15 K) of 0.269, a solubility (mole fraction) (in n-butanol, 273.15 K) of 0.342 and a solubility (mole fraction) (in n-butanol, 278.15 K) of 0.412. The solubility (mole fraction) (in n-butanol, 283.15 K) was 0.479, the solubility (mole fraction) (in n-butanol, 288.15 K) was 0.553 and the solubility (mole fraction) (in n-butanol, 293.15 K) was 0.608. It also gave a solubility (mole fraction) (in n-hexane, 253.15 K) of 0.00446, a solubility (mole fraction) (in n-hexane, 258.15 K) of 0.00664 and a solubility (mole fraction) (in n-hexane, 263.15 K) of 0.0104. It also gave a solubility (mole fraction) (in n-hexane, 268.15 K) of 0.0143, a solubility (mole fraction) (in n-hexane, 273.15 K) of 0.0194 and a solubility (mole fraction) (in n-hexane, 278.15 K) of 0.0248. For the same compound, the solubility (mole fraction) (in n-hexane, 283.15 K) was 0.0294, the solubility (mole fraction) (in n-hexane, 288.15 K) was 0.0352 and the solubility (mole fraction) (in n-hexane, 293.15 K) was 0.0418. The solubility (mole fraction) (in n-propanol, 253.15 K) was 0.174, the solubility (mole fraction) (in n-propanol, 258.15 K) was 0.213 and the solubility (mole fraction) (in n-propanol, 263.15 K) was 0.266. For the same compound, the solubility (mole fraction) (in n-propanol, 268.15 K) was 0.313, the solubility (mole fraction) (in n-propanol, 273.15 K) was 0.373 and the solubility (mole fraction) (in n-propanol, 278.15 K) was 0.433. The solubility (mole fraction) (in n-propanol, 283.15 K) was 0.496, the solubility (mole fraction) (in n-propanol, 288.15 K) was 0.567 and the solubility (mole fraction) (in n-propanol, 293.15 K) was 0.634. The solubility (mole fraction) (in sec-butanol, 253.15 K) was 0.089, the solubility (mole fraction) (in sec-butanol, 258.15 K) was 0.142 and the solubility (mole fraction) (in sec-butanol, 263.15 K) was 0.191. The solubility (mole fraction) (in sec-butanol, 268.15 K) was 0.255, the solubility (mole fraction) (in sec-butanol, 273.15 K) was 0.321 and the solubility (mole fraction) (in sec-butanol, 278.15 K) was 0.395. For the same compound, the solubility (mole fraction) (in sec-butanol, 283.15 K) was 0.459, the solubility (mole fraction) (in sec-butanol, 288.15 K) was 0.53 and the solubility (mole fraction) (in sec-butanol, 293.15 K) was 0.592.

— BigSolDB 2.1
